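Compound exposure: 48 hours, 5 concentrations, 96-well plates. TGI denotes the concentration required for complete inhibition of growth.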
Experiments:
Assay in all cases: inhibition of tumour cell growth, NCI panel, 48 h
SK-MEL-2 melanoma = system: SK-MEL-2 melanoma
CAKI-1 renal = system: CAKI-1 renal
786-0 renal = system: 786-0 renal
RXF 393 renal = system: RXF 393 renal
MOLT-4 leukemia = system: MOLT-4 leukemia
NCI-H522 lung = system: NCI-H522 lung
MDA-MB-435 = system: MDA-MB-435
SR leukemia = system: SR leukemia
SNB-19 CNS = system: SNB-19 CNS
T-47D breast = system: T-47D breast
SK-MEL-5 melanoma = system: SK-MEL-5 melanoma
SF-268 CNS = system: SF-268 CNS
ACHN renal = system: ACHN renal
OVCAR-4 ovarian = system: OVCAR-4 ovarian
RPMI-8226 leukemia = system: RPMI-8226 leukemia
IGROV1 ovarian = system: IGROV1 ovarian
SF-539 CNS = system: SF-539 CNS
COLO 205 colon = system: COLO 205 colon
MDA-MB-231 breast = system: MDA-MB-231 breast
MDA-N = system: MDA-N
UACC-62 melanoma = system: UACC-62 melanoma
OVCAR-3 ovarian = system: OVCAR-3 ovarian
SN12C renal = system: SN12C renal
HOP-92 NSCLC = system: HOP-92 NSCLC
K-562 leukemia = system: K-562 leukemia
SW-620 colon = system: SW-620 colon
A498 renal = system: A498 renal
EKVX NSCLC = system: EKVX NSCLC
PC-3 prostate = system: PC-3 prostate
A549 NSCLC = system: A549 NSCLC
NCI-H460 lung = system: NCI-H460 lung
HOP-62 NSCLC = system: HOP-62 NSCLC
NCI-H226 lung = system: NCI-H226 lung
M14 melanoma = system: M14 melanoma
KM12 colon = system: KM12 colon
BT-549 breast = system: BT-549 breast
HCT-116 colon = system: HCT-116 colon
MCF7 breast = system: MCF7 breast
U251 CNS = system: U251 CNS
SK-MEL-28 melanoma = system: SK-MEL-28 melanoma
HT29 colon = system: HT29 colon
NCI/ADR-RES ovarian = system: NCI/ADR-RES ovarian
SNB-75 CNS = system: SNB-75 CNS
HCC-2998 colon = system: HCC-2998 colon
UO-31 renal = system: UO-31 renal
HCT-15 colon = system: HCT-15 colon
OVCAR-5 ovarian = system: OVCAR-5 ovarian
UACC-257 melanoma = system: UACC-257 melanoma
NCI-H23 lung = system: NCI-H23 lung
SK-OV-3 ovarian = system: SK-OV-3 ovarian
DU-145 prostate = system: DU-145 prostate
HL-60(TB) leukemia = system: HL-60(TB) leukemia
TK-10 renal = system: TK-10 renal
HS 578T breast = system: HS 578T breast
SF-295 CNS = system: SF-295 CNS
LOX IMVI melanoma = system: LOX IMVI melanoma
OVCAR-8 ovarian = system: OVCAR-8 ovarian
CCRF-CEM leukemia = system: CCRF-CEM leukemia
MALME-3M melanoma = system: MALME-3M melanoma

Measured: TGI

O=C(O)C1[C@@H](C(=O)O)C1(Br)CBr (stereo not given in full)
not listed: CCRF-CEM leukemia | MALME-3M melanoma
> 100 µM: all other assays above

CC1=CN(c2ccccc2)S2=C1c1sc3c(c1N2c1ccc(Br)cc1)CCCC3 (stereo not given)
not listed: SNB-75 CNS | MALME-3M melanoma
> 100 µM: all other assays above

N#CCCN(CCC#N)CCN(CCN(CCC#N)CCC#N)CCN(CCC#N)CCC#N
not listed: UACC-62 melanoma | KM12 colon | CCRF-CEM leukemia
> 100 µM: all other assays above

— PubChem BioAssay (NCI)
